Measurements: patent US8022215B2, “Fused pyridone M1 receptor positive allosteric modulators” (Merck Sharp & Dohme Corp., priority 2008, dated 2011)
Where two headings read alike, the source gives them in different places.

Target: T1, acetylcholine muscarinic M1 receptor (Homo sapiens, UniProt P11229)
T1 construct: expressed in transfected cells; host or cells: CHOnfat (CHO cells, Geneticin selection)
T1 sequence (P11229 1-460): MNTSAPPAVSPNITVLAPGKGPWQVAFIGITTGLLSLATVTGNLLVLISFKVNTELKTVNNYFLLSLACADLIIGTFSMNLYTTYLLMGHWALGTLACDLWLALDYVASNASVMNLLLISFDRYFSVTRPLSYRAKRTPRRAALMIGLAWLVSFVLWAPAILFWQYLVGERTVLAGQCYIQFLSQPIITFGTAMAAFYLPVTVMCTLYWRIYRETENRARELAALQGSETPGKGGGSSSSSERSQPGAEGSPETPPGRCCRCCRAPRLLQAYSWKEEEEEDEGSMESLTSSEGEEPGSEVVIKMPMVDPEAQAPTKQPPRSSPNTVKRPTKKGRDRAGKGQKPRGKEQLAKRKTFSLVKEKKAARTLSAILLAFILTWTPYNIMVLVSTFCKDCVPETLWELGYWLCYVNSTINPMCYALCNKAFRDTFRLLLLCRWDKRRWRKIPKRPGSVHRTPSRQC
Experiment: muscarinic FLIPR assay: potentiation of acetylcholine (EC20)-stimulated intracellular Ca2+ in CHOnfat/hM1 cells
Format: cell-based
Experimental: The assay studies the effect of one or several concentrations of test compounds on basal or acetylcholine-stimulated Ca^2+ levels using FLIPR.
Compounds are prepared and subjected to a preincubation period of 4 min. Thereafter, a single EC20 concentration of acetylcholine is added to each well (3 nM final). The intracellular Ca^2+ level of each sample is measured and compared to an acetylcholine control to determine any modulatory activity.
Cells: CHOnfat/hM1, hM2, hM3 or hM4 cells are plated 24 hr before the assay at a density of 18,000 cells/well (100 μL) in a 384 well plate. CHOnfat/hM1 and CHOnfat/hM3 Growth Medium: 90% DMEM (Hi Glucose); 10% HI FBS; 2 mM L-glutamine; 0.1 mM NEAA; Pen-Strep; and 1 mg/ml Geneticin, are added. For M2Gqi5CHOnfat and M4Gqi5CHOnfat cells, an additional 600 μg/ml hygromycin is added.
Buffers. […] Dye Loading Buffer: Assay Buffer plus 1% Fetal Bovine Serum and Fluo-4AM/Pluronic Acid Mixture. […] 20% Pluronic Acid Solution stock, with a concentration of 0.04% in Buffer, 0.02% in Assay.
65 μL of 2 mM Fluo-4AM are mixed with 130 μL of 20% Pluronic Acid. The resulting solution and 650 μL FBS is added to the assay buffer for a total volume of 65 mL. Positive Controls: 4-Br-A23187: 10 mM in DMSO; final concentration 10 μM. Acetylcholine: 10 mM in water, working stock at both 20 μM and 30 μM in assay buffer, final concentration of 10 μM. This is used to check the maximum stimulation of the CHOK1/hM1 cells. 20 μM (2×) acetylcholine is added in the preincubation part of the assay, and the 30 μM (3×) stock is added in the second part. (EC20)Acetylcholine: 10 mM in water, working stock of 9 nM (3×), and final concentration in assay is 3 nM. This is used after the preincubation with test compounds. Addition of the EC20 acetylcholine to each well with a test compound will ascertain any modulator activity. 24 wells contain 3 nM acetylcholine alone as a control.
Determining Activity of Putative Compounds:
Four 96-well plates are combined into a 384-well plate using Mosquito Nanolitre Pipetting System by transferring 1 μl of serial diluted compounds to each well, and 1 mM acetylcholine (100× stock concentration) were added as a control. Using Temo, 49 μl assay buffer is added to each well of the 384-well plate right before assay.
In a 96-well Whatman 2 ml Uniplate, 9 nM acetylcholine (3×) is pipetted into wells corresponding to the screening compounds and into control wells. The 30 μM acetylcholine control (3×) is added into control wells and the 3× agonist plate is transferred into a 384-well plate.
Cells are washed three times with 100 μL of buffer, leaving 30 μL of buffer in each well. Using Multimek, 30 μL of Dye Loading Buffer is added into each well and incubated at 37° C., 5% CO2 for up to one hr.
After 60 min, the cells are washed three times with 100 μL of buffer, leaving 30 μL of buffer in each well. The cell plate, screening plate, and agonist addition plates are placed on the platform in the FLIPR and the door is closed. A signal test to check background fluorescence and basal fluorescence signal is performed. Laser intensity is adjusted if necessary.
4 min of preincubation with the test compounds is provided to determine any agonist activity on the M1 receptor by comparison to the 1 mM acetylcholine control. After preincubation, the EC20 value of acetylcholine (3 nM final) is added to determine any modulator activity.
The inflection point is calculated from the FLIPR values and is a measure of activity.

| SMILES | EC50 [nM] | EC50 (CHOnfat/hM1 cells, FLIPR, 4 min preincubation, then EC20 acetylcholine (3 nM final), read-out: IP Value (inflection point)) [nM] |
| --- | --- | --- |
| CNC1CCCc2c1c(=O)c(C(=O)O)cn2Cc1ccc(-c2ccccc2)cc1 (stereo not shown) [Example 70] | 8370 | – |
| Cn1ccc2cc(-c3ccc(Cn4cc(C(=O)O)c(=O)c5c4CCCC5O)nc3)ccc21 (stereo not shown) [Example 66] | 199 | – |
| O=C(O)c1cn(C/C=C/c2ccccc2F)c2c(c1=O)C(=O)CCC2 [Example 15, 1-[(2E)-3-(2-Fluorophenyl)prop-2-en-1-yl]-4,5-dioxo-1,4,5,6,7,8-hexahydroquinoline-3-carboxylic acid] | 64000 | – |
| CCCCNC1CCCc2c1c(=O)c(C(=O)O)cn2Cc1ccc(-c2ccccc2)cc1 (stereo not shown) [Example 71] | 1500 | – |
| O=C(O)c1cn(Cc2ccc(-c3ccccc3)cc2)c2c(c1=O)C(=O)CCC2 [Example 6] | – | 806 |
| O=C(O)c1cn(Cc2ccc(-c3ccccc3)cc2)c2c(c1=O)CCC2 [Example 1, 1-(Biphenyl-4-ylmethyl)-4-oxo-4,5,6,7-tetrahydro-1H-cyclopenta[b]pyridine-3-carboxylic acid] | 812 | – |
| COc1ccc(-c2ccc(Cn3cc(C(=O)O)c(=O)c4c3CCCC4O)cc2)cn1 (stereo not shown) [Example 53] | 323 | – |
| COC1CCCc2c1c(=O)c(C(=O)O)cn2Cc1ccc(-c2ccccc2)cc1 (racemic) [Example 62, (±)-1-(Biphenyl-4-ylmethyl)-5-methoxy-4-oxo-1,4,5,6,7,8-hexahydroquinoline-3-carboxylic acid] | 1100 | – |
| O=C(O)c1cn(Cc2ccc(-c3ccccc3)cc2)c2c(c1=O)C(N1CCCC1)CCC2 (stereo not shown) [Example 73] | 4100 | – |
| N#Cc1ccc(-c2ccc(Cn3cc(C(=O)O)c(=O)c4c3CCCC4O)cc2)cc1 (stereo not shown) [Example 41] | 318 | – |
| COc1ccccc1-c1ccc(Cn2cc(C(=O)O)c(=O)c3c2CCCC3O)cc1 (racemic) [Example 27, (±)-5-Hydroxy-1-[(2′-methoxybiphenyl-4-yl)methyl]-4-oxo-1,4,5,6,7,8-hexahydroquinoline-3carboxylic acid] | 3140 | – |
| O=C(O)c1cn(Cc2ccc(-c3ccccc3)cc2)c2c(c1=O)C(NCc1ccccc1)CCC2 (stereo not shown) [Example 72] | 2200 | – |
| CCC1(O)CCCc2c1c(=O)c(C(=O)O)cn2Cc1ccc(-c2ccccc2)cc1 (racemic) [Example 68, (±)-1-(Biphenyl-4-ylmethyl)-5-ethyl-5-hydroxy-4-oxo-1,4,5,6,7,8-hexahydroquinoline-3-carboxylic acid] | 9050 | – |
